Test [1] concerns Human immunodeficiency virus 1. The test can be described thus: Inhibition of recombinant HIV1 protease at 50 nM.
Test [2] concerns Human T-cell leukemia virus type I. Kind of test: Inhibition of human recombinant HTLV1 protease at 100 uM.

*1 amine or outer side, *2 acyl side, *3 side chain or, on linkers, in order; H or OH if unused. Where a SMILES comes first, the peptide text is derived from it. [ ]: non-standard residue; d: D form. The star is where a group is joined. X1 = O=C([C@@H](O)[C@H](Cc1ccccc1)N[*:1])[*:2]; Thz(5,5-Me2) = CC1(C)SCN[C@@H]1C(=O)O; X2 = N[C@@H](Cc1ccccc1)[C@H](O)C(=O)* Some results are limits rather than exact numbers.

The values that follow come from ChEMBL document CHEMBL1148015, “Chipping at large, potent human T-cell leukemia virus type 1 protease inhibitors to uncover smaller, equipotent inhibitors” (Bioorg Med Chem Lett, 2007).

Consider `CSCC[C@H](NC(=O)[C@@H](NC(=O)[C@@H]1CCCN1C(=O)[C@@H](O)[C@H](Cc1ccccc1)NC(=O)[C@@H](NC(=O)[C@H](CCC(N)=O)NC(=O)[C@@H]1CCCN1)C(C)C)C(C)C)C(=O)N[C@@H](Cc1cnc[nH]1)C(=O)O` (H-PQV[X1]PVMH-OH), for which the inhibition in test [1] was less than 30%; in test [2], 94%.

For `CSCC[C@H](NC(=O)[C@@H](NC(=O)[C@H]1N(C(=O)[C@@H](O)[C@H](Cc2ccccc2)NC(=O)[C@@H](NC(=O)[C@H](CCC(N)=O)NC(C)=O)C(C)C)CSC1(C)C)[C@@H](C)O)C(N)=O` (Ac-QV[X1][Thz(5,5-Me2)]TM-NH2), the inhibition in test [1] is 78%; in test [2] it was less than 30%.

As to `CC[C@H](C)[C@H](NC(C)=O)C(=O)N[C@H](C(=O)N[C@@H](Cc1ccccc1)[C@H](O)C(=O)N1CSC(C)(C)[C@H]1C(=O)N[C@H](C(=O)N[C@@H](CCSC)C(N)=O)[C@@H](C)CC)[C@@H](C)CC` (Ac-II[X1][Thz(5,5-Me2)]IM-NH2), the inhibition in test [1] came to 98%; in test [2], 94%.

For `CC[C@H](C)[C@H](NC(C)=O)C(=O)N[C@H](C(=O)N[C@@H](Cc1ccccc1)[C@H](O)C(=O)N1CSC(C)(C)[C@H]1C(=O)N[C@H](C(=O)N[C@H](C(N)=O)C(C)C)C(C)C)C(C)C` (Ac-IV[X1][Thz(5,5-Me2)]VV-NH2), the results for the inhibition in test [1] and in test [2] were 96% and 70%, respectively.

In the case of `CSCC[C@H](NC(=O)[C@@H](NC(=O)[C@@H]1CCCN1C(=O)[C@@H](O)[C@H](Cc1ccccc1)NC(=O)[C@H](NC(=O)[C@H](N)CCC(N)=O)C(C)C)C(C)C)C(=O)N[C@@H](Cc1c[nH]cn1)C(=O)O`, the inhibition in test [1] and in test [2] was less than 30% each time.

`CC[C@H](C)[C@H](NC(=O)[C@@H](NC(=O)[C@H]1N(C(=O)[C@@H](O)[C@H](Cc2ccccc2)NC(=O)[C@@H](NC(=O)[C@@H](NC(C)=O)[C@@H](C)CC)C(C)C)CSC1(C)C)C(C)C)C(N)=O` (Ac-IV[X1][Thz(5,5-Me2)]VI-NH2): the inhibition in test [1] was 97%; in test [2], 78%.

On to `CSCC[C@H](NC(=O)[C@@H](NC(=O)[C@H]1N(C(=O)[C@@H](O)[C@H](Cc2ccccc2)NC(=O)[C@@H](NC(=O)[C@H](C)NC(C)=O)C(C)C)CSC1(C)C)C(C)C)C(N)=O` (Ac-AV[X1][Thz(5,5-Me2)]VM-NH2), for which the inhibition was 96% in test [1] and 56% in test [2].

On to `CSCC[C@H](NC(=O)[C@@H](NC(=O)[C@@H]1CCCN1C(=O)[C@@H](O)[C@H](Cc1ccccc1)NC(=O)[C@H](NC(=O)[C@@H](CCC(N)=O)NC(C)=O)C(C)C)C(C)C)C(=O)N[C@@H](Cc1c[nH]cn1)C(=O)O`, for which the inhibition is less than 30% in test [1] and 49% in test [2].

`CC[C@H](C)[C@H](NC(C)=O)C(=O)N[C@H](C(=O)N[C@@H](Cc1ccccc1)[C@H](O)C(=O)N1CSC(C)(C)[C@H]1C(=O)N[C@H](C(=O)N[C@@H](CC(C)C)C(N)=O)C(C)C)C(C)C` (Ac-IV[X1][Thz(5,5-Me2)]VL-NH2): the inhibition turned out to be 95% in test [1] and 54% in test [2].

With `CSCC[C@H](NC(=O)[C@@H](NC(=O)[C@H]1N(C(=O)[C@@H](O)[C@H](Cc2ccccc2)NC(=O)[C@@H](NC(=O)[C@@H](NC(C)=O)C(C)C)C(C)C)CSC1(C)C)C(C)C)C(N)=O` (Ac-VV[X1][Thz(5,5-Me2)]VM-NH2), the inhibition was determined as 95% in test [1] and 77% in test [2].

In the case of `CSCC[C@H](NC(=O)[C@@H](NC(=O)[C@H]1N(C(=O)[C@@H](O)[C@H](Cc2ccccc2)NC(=O)[C@H](CSC)NC(=O)[C@H](CCC(N)=O)NC(C)=O)CSC1(C)C)C(C)C)C(N)=O` (Ac-QC(Me)[X1][Thz(5,5-Me2)]VM-NH2), the inhibition turned out to be 96% in test [1] and 51% in test [2].

With `CSCC[C@H](NC(=O)[C@@H](NC(=O)[C@H]1N(C(=O)[C@@H](O)[C@H](Cc2ccccc2)NC(=O)[C@@H](NC(=O)[C@H](CCC(N)=O)NC(C)=O)C(C)C)CSC1(C)C)C(C)C)C(N)=O` (Ac-QV[X1][Thz(5,5-Me2)]VM-NH2), the inhibition is 96% in test [1] and 66% in test [2].

Regarding `CC(C)[C@H](NC(=O)[C@@H]1CCCN1C(=O)[C@@H](O)[C@H](Cc1ccccc1)NC(=O)[C@@H](NC(=O)[C@H](CCC(N)=O)NC(=O)[C@@H]1CCCN1)C(C)C)C(N)=O` (H-PQV[X1]PV-NH2), the inhibition in test [1] and in test [2] was less than 30% throughout.

Turning to `CSCC[C@H](NC(=O)[C@@H](NC(=O)[C@@H]1CCCN1C(=O)[C@@H](O)[C@H](Cc1ccccc1)NC(C)=O)C(C)C)C(=O)N[C@@H](Cc1c[nH]cn1)C(=O)O` (Ac-[X1]PVMH-OH), the inhibition in test [1] and in test [2] was less than 30% each time.

Take `CC[C@H](C)[C@H](NC(=O)[C@H](CCC(N)=O)NC(C)=O)C(=O)N[C@@H](Cc1ccccc1)[C@H](O)C(=O)N1CSC(C)(C)[C@H]1C(=O)N[C@H](C(=O)N[C@@H](CCSC)C(N)=O)C(C)C` (Ac-QI[X1][Thz(5,5-Me2)]VM-NH2): the inhibition in test [1] worked out at 95%; in test [2], 85%.

Take `CSCC[C@H](NC(=O)[C@@H](NC(=O)[C@H]1N(C(=O)[C@@H](O)[C@H](Cc2ccccc2)NC(=O)[C@@H](NC(=O)[C@H](CC(C)C)NC(C)=O)C(C)C)CSC1(C)C)C(C)C)C(N)=O` (Ac-LV[X1][Thz(5,5-Me2)]VM-NH2): the inhibition in test [1] was determined as 99%; in test [2], 83%.

On to `CSCC[C@H](NC(=O)[C@@H](NC(=O)[C@H]1N(C(=O)[C@@H](O)[C@H](Cc2ccccc2)NC(=O)[C@H](CC(C)C)NC(=O)[C@H](CCC(N)=O)NC(C)=O)CSC1(C)C)C(C)C)C(N)=O` (Ac-QL[X1][Thz(5,5-Me2)]VM-NH2), for which the inhibition in test [1] came to 83%; in test [2], 54%.

Consider `CSCC[C@H](NC(=O)[C@@H](NC(=O)[C@H]1N(C(=O)[C@@H](O)[C@H](Cc2ccccc2)NC(=O)[C@@H](NC(=O)[C@H](CCC(N)=O)NC(=O)[C@@H]2CCCN2)C(C)C)CSC1(C)C)C(C)C)C(=O)N[C@@H](Cc1c[nH]cn1)C(=O)O` (H-PQV[X1][Thz(5,5-Me2)]VMH-OH), for which the inhibition in test [1] was 58%; in test [2] it was more than 99%.

For the molecule `CSCC[C@H](NC(=O)[C@@H](NC(=O)[C@@H]1CCCN1C(=O)[C@@H](O)[C@H](Cc1ccccc1)NC(=O)[C@@H](NC(=O)[C@H](CCC(N)=O)NC(=O)[C@@H]1CCCN1)C(C)C)C(C)C)C(N)=O` (H-PQV[X1]PVM-NH2), the inhibition in test [1] is less than 30%; in test [2], 86%.

Consider `CSCC[C@H](NC(=O)[C@@H](NC(=O)[C@@H]1CCCN1C(=O)[C@@H](O)[C@H](Cc1ccccc1)NC(=O)[C@@H](N)C(C)C)C(C)C)C(=O)N[C@@H](Cc1c[nH]cn1)C(=O)O` (H-V[X1]PVMH-OH), for which the inhibition in test [1] and in test [2] was less than 30% each time.

Turning to `CC[C@H](C)[C@H](NC(=O)[C@H]1N(C(=O)[C@@H](O)[C@H](Cc2ccccc2)NC(=O)[C@@H](NC(=O)[C@H](CCC(N)=O)NC(C)=O)C(C)C)CSC1(C)C)C(=O)N[C@@H](CCSC)C(N)=O` (Ac-QV[X1][Thz(5,5-Me2)]IM-NH2), the inhibition in test [1] is 95%; in test [2], 74%.

In the case of `CC[C@H](C)[C@H](NC(C)=O)C(=O)N[C@H](C(=O)N[C@@H](Cc1ccccc1)[C@H](O)C(=O)N1CSC(C)(C)[C@H]1C(=O)N[C@H](C(=O)N[C@@H](CCC(N)=O)C(N)=O)C(C)C)C(C)C` (Ac-IV[X1][Thz(5,5-Me2)]VQ-NH2), the values for the inhibition in test [1] and in test [2] were 95% and 86%, respectively.

Consider `CSCC[C@H](NC(=O)[C@H](CC(C)C)NC(=O)[C@H]1N(C(=O)[C@@H](O)[C@H](Cc2ccccc2)NC(=O)[C@@H](NC(=O)[C@H](CCC(N)=O)NC(C)=O)C(C)C)CSC1(C)C)C(N)=O` (Ac-QV[X1][Thz(5,5-Me2)]LM-NH2), for which the inhibition was found to be 84% in test [1] and 30% in test [2].

`CSCC[C@H](NC(=O)[C@@H](CSC)NC(=O)[C@H]1N(C(=O)[C@@H](O)[C@H](Cc2ccccc2)NC(=O)[C@@H](NC(=O)[C@H](CCC(N)=O)NC(C)=O)C(C)C)CSC1(C)C)C(N)=O`: the figures for the inhibition in test [1] and in test [2] were 92% and less than 30%, respectively.

For the molecule `CSCC[C@H](NC(=O)[C@@H](NC(=O)[C@H]1N(C(=O)[C@@H](O)[C@H](Cc2ccccc2)NC(=O)[C@@H](NC(=O)[C@H](Cc2ccccc2)NC(C)=O)C(C)C)CSC1(C)C)C(C)C)C(N)=O` (Ac-FV[X1][Thz(5,5-Me2)]VM-NH2), the results for the inhibition in test [1] and in test [2] were 95% and 74%, respectively.

As for `CC[C@H](C)[C@H](NC(C)=O)C(=O)N[C@H](C(=O)N[C@@H](Cc1ccccc1)[C@H](O)C(=O)N1CSC(C)(C)[C@H]1C(=O)N[C@H](C(=O)N[C@@H](Cc1ccccc1)C(N)=O)C(C)C)C(C)C` (Ac-IV[X1][Thz(5,5-Me2)]VF-NH2), the inhibition in test [1] came out at 98%; in test [2], 84%.

For the molecule `CSCC[C@H](NC(=O)[C@@H](NC(=O)[C@@H]1CCCN1C(=O)[C@@H](O)[C@@H](N)Cc1ccccc1)C(C)C)C(=O)N[C@@H](Cc1c[nH]cn1)C(=O)O` (X2-PVMH-OH), the inhibition in test [1] and in test [2] was less than 30% in each case.

On to `CC(C)[C@H](NC(=O)[C@H](CCC(N)=O)NC(=O)[C@@H]1CCCN1)C(=O)N[C@@H](Cc1ccccc1)[C@H](O)C(=O)N1CCC[C@H]1C(N)=O` (H-PQV[X1]P-NH2), for which the inhibition in test [1] and in test [2] was less than 30% each time.

As for `CC[C@H](C)[C@H](NC(C)=O)C(=O)N[C@H](C(=O)N[C@@H](Cc1ccccc1)[C@H](O)C(=O)N1CSC(C)(C)[C@H]1C(=O)N[C@H](C(=O)N[C@@H](CCSC)C(N)=O)C(C)C)C(C)C` (Ac-IV[X1][Thz(5,5-Me2)]VM-NH2), the inhibition in test [1] was determined as 98%; in test [2] it was 87%.

In the case of `CSCC[C@H](NC(=O)[C@@H](NC(=O)[C@@H]1CCCN1C(=O)[C@@H](O)[C@H](Cc1ccccc1)NC(=O)[C@@H](NC(C)=O)C(C)C)C(C)C)C(=O)N[C@@H](Cc1c[nH]cn1)C(=O)O` (Ac-V[X1]PVMH-OH), the inhibition in test [1] and in test [2] was less than 30% throughout.
